Test results from paper PMC13566268, “Everolimus-Involving Immunosuppression Attenuates Renal Interstitial Fibrosis Through Modulation of Mammalian Target of Rapamycin-Related Signal Transduction” (International Journal of Molecular Sciences, 2026).

Test: Pharmacokinetic assessment of immunosuppressants (blood/plasma trough and AUC)
Assay type: in vivo, human
Conditions: Non-EVR group, plasma, mean ± SD
Method: Sampling was performed at both 1-month and 1-year posttransplantation. The area under the blood (plasma) concentration–time curve (AUC) was then calculated from these serial measurements.

## COc1c(C)c2c(c(O)c1C/C=C(\C)CCC(=O)O)C(=O)OC2 [MPA, mycophenolic acid]
At 1-month posttransplantation
  MPA AUC0–12: 53500 ± 21000 ng·h/mL
At 1-year posttransplantation
  MPA AUC0–12: 51500 ± 20000 ng·h/mL
